{"source": "ChEMBL document CHEMBL3112401", "about": "“Activity of diimidazoline amides against African trypanosomiasis” (Bioorg Med Chem Lett, 2014)", "key": {"[1]": {"tested_on": "Trypanosoma brucei rhodesiense", "test": "Antitrypanosomal activity against Trypanosoma brucei rhodesiense STIB900 assessed as parasite growth inhibition after 70 hrs by Alamar blue assay", "type": "functional, organism-based", "conditions": "STIB900, 70 h"}, "L6": {"tested_on": "L6", "test": "Cytotoxicity against rat L6 cells assessed as cell viability after 70 hrs by MTT assay", "type": "cell-based", "conditions": "L6, 70 h"}, "[2]": {"tested_on": "Trypanosoma brucei rhodesiense", "test": "Antitrypanosomal activity against Trypanosoma brucei rhodesiense infected in mouse assessed as survival more than 60 days without parasitemia relapse at 50 mg/kg, ip administered on day 3 to 6", "type": "functional, organism-based", "parameters": "dose 50 mg/kg"}, "Mus musculus": {"tested_on": "Mus musculus", "test": "Toxicity in mouse infected with Trypanosoma brucei rhodesiense at 50 mg/kg, ip measured after day 3", "type": "organism-based", "parameters": "dose 50 mg/kg, route intraperitoneal", "conditions": "in vivo"}, "[3]": {"tested_on": "Trypanosoma brucei rhodesiense", "test": "Antitrypanosomal activity against Trypanosoma brucei rhodesiense infected in mouse assessed as mean survival days at 50 mg/kg, ip administered on day 3 to 6 (reference value: 6 to 10 days)", "type": "functional", "conditions": "route intraperitoneal"}, "[4]": {"tested_on": "Trypanosoma brucei rhodesiense", "test": "Antitrypanosomal activity against Trypanosoma brucei rhodesiense infected in mouse assessed as cure rate at 40 mg/kg, ip administered on day 1 to 3 relative to control", "type": "functional", "conditions": "route intraperitoneal"}}, "note": "pIC50: −log10 of the molar value. The source made the active and inactive calls. The rule behind the calls is not given here.", "data": [{"smiles": "N=C(N)c1ccc(OCCCCCOc2ccc(C(=N)N)cc2)cc1", "note": "[PENTAMIDINE ISETHIONATE]", "values": [{"measurement": "pIC50", "setting": "[1]", "value": 8.82}, {"measurement": "pIC50", "setting": "L6", "value": 5.29}]}, {"smiles": "CS(=O)(=O)O.O=C(Nc1ccc(NC(=O)c2ccc(C3=NCCN3)cc2)cc1)c1ccc(C2=NCCN2)cc1", "values": [{"measurement": "pIC50", "setting": "[1]", "value": 6.92}, {"measurement": "Activity", "setting": "[2]", "value": "Active"}, {"measurement": "Activity", "setting": "Mus musculus", "value": "Non-toxic"}, {"measurement": "MSD", "setting": "[3]", "value": ">60", "unit": "days"}, {"measurement": "Activity", "setting": "[4]", "value": 100, "unit": "%"}, {"measurement": "pIC50", "setting": "L6", "value": 4.04}]}, {"smiles": "CS(=O)(=O)O.O=C(Nc1ccc(C2=NCCN2)cc1)c1cccc(C(=O)Nc2ccc(C3=NCCN3)cc2)c1", "values": [{"measurement": "pIC50", "setting": "[1]", "value": 7.29}, {"measurement": "Activity", "setting": "[2]", "value": "Active"}, {"measurement": "MSD", "setting": "[3]", "value": ">60", "unit": "days"}, {"measurement": "Activity", "setting": "[4]", "value": 100, "unit": "%"}, {"measurement": "pIC50", "setting": "L6", "value": 3.92}]}, {"smiles": "CS(=O)(=O)O.O=C(Nc1ccc(C2=NCCN2)cc1)c1ccc(C(=O)Nc2ccc(C3=NCCN3)cc2)cc1", "values": [{"measurement": "pIC50", "setting": "[1]", "value": 8.33}, {"measurement": "MSD", "setting": "[3]", "value": 39, "unit": "days"}, {"measurement": "Activity", "setting": "[4]", "value": 100, "unit": "%"}, {"measurement": "pIC50", "setting": "L6", "value": 3.96}]}, {"smiles": "O=C(NCc1ccc(C2=NCCN2)cc1)c1ccc(C(=O)NCc2ccc(C3=NCCN3)cc2)cc1", "values": [{"measurement": "pIC50", "setting": "[1]", "value": 5.02}, {"measurement": "pIC50", "setting": "L6", "value": 4.04}]}, {"smiles": "Nc1nc(N)nc(Nc2ccc([As]3SCC(CO)S3)cc2)n1", "note": "(stereo unspecified) [MELARSOPROL]", "values": [{"measurement": "pIC50", "setting": "[1]", "value": 8.42}, {"measurement": "pIC50", "setting": "L6", "value": 4.72}]}, {"smiles": "O=C(NCc1ccc(C2=NCCN2)cc1)c1cccc(C(=O)NCc2ccc(C3=NCCN3)cc2)c1", "values": [{"measurement": "pIC50", "setting": "[1]", "value": 4.19}, {"measurement": "pIC50", "setting": "L6", "value": "< 3.82"}]}, {"smiles": "O=C(Nc1ccc(C2=NCCN2)cc1)c1ccc(-c2cc3ccc(C4=NCCN4)cc3[nH]2)cc1", "values": [{"measurement": "pIC50", "setting": "[1]", "value": 8.66}, {"measurement": "Activity", "setting": "[4]", "value": 100, "unit": "%"}, {"measurement": "pIC50", "setting": "L6", "value": 4.72}]}, {"smiles": "CS(=O)(=O)O.O=C(Nc1ccc(C2=NCCN2)cc1)c1ccc(-c2ccc(C(=O)Nc3ccc(C4=NCCN4)cc3)cc2)cc1", "values": [{"measurement": "pIC50", "setting": "[1]", "value": 7.72}, {"measurement": "Activity", "setting": "[2]", "value": "inactive"}, {"measurement": "Activity", "setting": "Mus musculus", "value": "Non-toxic"}, {"measurement": "MSD", "setting": "[3]", "value": 11, "unit": "days"}, {"measurement": "Activity", "setting": "[4]", "value": 100, "unit": "%"}, {"measurement": "pIC50", "setting": "L6", "value": "< 3.82"}]}, {"smiles": "O=C(NCc1ccncc1)c1ccc(-c2cc3ccc(C4=NCCN4)cc3[nH]2)cc1", "values": [{"measurement": "pIC50", "setting": "[1]", "value": 7.64}, {"measurement": "Activity", "setting": "[4]", "value": 100, "unit": "%"}, {"measurement": "pIC50", "setting": "L6", "value": 4.05}]}, {"smiles": "CS(=O)(=O)O.O=C(Nc1ccc(C2=NCCN2)cc1)c1ccc(NC(=O)c2ccc(C3=NCCN3)cc2)cc1", "values": [{"measurement": "pIC50", "setting": "[1]", "value": 7.96}, {"measurement": "Activity", "setting": "[2]", "value": "Active"}, {"measurement": "Activity", "setting": "Mus musculus", "value": "Non-toxic"}, {"measurement": "MSD", "setting": "[3]", "value": ">60", "unit": "days"}, {"measurement": "Activity", "setting": "[4]", "value": 100, "unit": "%"}, {"measurement": "pIC50", "setting": "L6", "value": 4.30}]}, {"smiles": "CS(=O)(=O)O.O=C(NCc1ccc(C2=NCCN2)cc1)c1ccc(-c2cc3ccc(C4=NCCN4)cc3[nH]2)cc1", "values": [{"measurement": "pIC50", "setting": "[1]", "value": 8.82}, {"measurement": "Activity", "setting": "[2]", "value": "inactive"}, {"measurement": "Activity", "setting": "Mus musculus", "value": "Toxic"}, {"measurement": "Activity", "setting": "[4]", "value": 100, "unit": "%"}, {"measurement": "pIC50", "setting": "L6", "value": 4.39}]}, {"smiles": "O=C(N[C@H]1CC[C@H](NC(=O)c2ccc(C3=NCCN3)cc2)CC1)c1ccc(C2=NCCN2)cc1", "values": [{"measurement": "pIC50", "setting": "[1]", "value": 6.16}, {"measurement": "pIC50", "setting": "L6", "value": 3.89}]}, {"smiles": "O=C(NCc1ccccc1)c1ccc(-c2cc3ccc(C4=NCCN4)cc3[nH]2)cc1", "values": [{"measurement": "pIC50", "setting": "[1]", "value": 5.66}, {"measurement": "pIC50", "setting": "L6", "value": 3.96}]}, {"smiles": "CS(=O)(=O)O.O=C(Nc1ccc(C2=NCCN2)cc1)c1ccc(C2=NCCN2)cc1", "values": [{"measurement": "pIC50", "setting": "[1]", "value": 7.07}, {"measurement": "Activity", "setting": "Mus musculus", "value": "Non-toxic"}, {"measurement": "MSD", "setting": "[3]", "value": 34, "unit": "days"}, {"measurement": "Activity", "setting": "[4]", "value": 100, "unit": "%"}, {"measurement": "pIC50", "setting": "L6", "value": 4.17}]}, {"smiles": "CS(=O)(=O)O.O=C(Nc1cccc(C(=O)Nc2ccc(C3=NCCN3)cc2)c1)c1ccc(C2=NCCN2)cc1", "values": [{"measurement": "pIC50", "setting": "[1]", "value": 6.92}, {"measurement": "Activity", "setting": "[2]", "value": "Active"}, {"measurement": "Activity", "setting": "Mus musculus", "value": "Non-toxic"}, {"measurement": "MSD", "setting": "[3]", "value": ">60", "unit": "days"}, {"measurement": "Activity", "setting": "[4]", "value": 100, "unit": "%"}, {"measurement": "pIC50", "setting": "L6", "value": 4.00}]}]}
